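Dose response: 5 concentrations. Exposure: 48 h. Format: 96-well plates. Endpoint: linear interpolation; highest concentration if not reached. GI50 is the concentration that inhibits growth by half. TGI denotes the concentration required for complete inhibition of growth.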
Legend:
Test in all cases: NCI anticancer screen, dose series, 48 h
786-0 renal = test system: 786-0 renal
A498 renal = test system: A498 renal
ACHN renal = test system: ACHN renal
BT-549 breast = test system: BT-549 breast
CAKI-1 renal = test system: CAKI-1 renal
CCRF-CEM leukemia = test system: CCRF-CEM leukemia
COLO 205 colon = test system: COLO 205 colon
DU-145 prostate = test system: DU-145 prostate
EKVX NSCLC = test system: EKVX NSCLC
HCC-2998 colon = test system: HCC-2998 colon
HCT-116 colon = test system: HCT-116 colon
HCT-15 colon = test system: HCT-15 colon
HL-60(TB) leukemia = test system: HL-60(TB) leukemia
HOP-62 NSCLC = test system: HOP-62 NSCLC
HOP-92 NSCLC = test system: HOP-92 NSCLC
HS 578T breast = test system: HS 578T breast
HT29 colon = test system: HT29 colon
IGROV1 ovarian = test system: IGROV1 ovarian
KM12 colon = test system: KM12 colon
LOX IMVI melanoma = test system: LOX IMVI melanoma
M14 melanoma = test system: M14 melanoma
MALME-3M melanoma = test system: MALME-3M melanoma
MCF7 breast = test system: MCF7 breast
MDA-MB-231 breast = test system: MDA-MB-231 breast
MDA-MB-435 = test system: MDA-MB-435
MOLT-4 leukemia = test system: MOLT-4 leukemia
NCI-H226 lung = test system: NCI-H226 lung
NCI-H23 lung = test system: NCI-H23 lung
NCI-H460 lung = test system: NCI-H460 lung
NCI-H522 lung = test system: NCI-H522 lung
NCI/ADR-RES ovarian = test system: NCI/ADR-RES ovarian
OVCAR-3 ovarian = test system: OVCAR-3 ovarian
OVCAR-4 ovarian = test system: OVCAR-4 ovarian
OVCAR-5 ovarian = test system: OVCAR-5 ovarian
OVCAR-8 ovarian = test system: OVCAR-8 ovarian
PC-3 prostate = test system: PC-3 prostate
RPMI-8226 leukemia = test system: RPMI-8226 leukemia
RXF 393 renal = test system: RXF 393 renal
SF-268 CNS = test system: SF-268 CNS
SF-295 CNS = test system: SF-295 CNS
SF-539 CNS = test system: SF-539 CNS
SK-MEL-2 melanoma = test system: SK-MEL-2 melanoma
SK-MEL-28 melanoma = test system: SK-MEL-28 melanoma
SK-MEL-5 melanoma = test system: SK-MEL-5 melanoma
SK-OV-3 ovarian = test system: SK-OV-3 ovarian
SN12C renal = test system: SN12C renal
SNB-19 CNS = test system: SNB-19 CNS
SNB-75 CNS = test system: SNB-75 CNS
SR leukemia = test system: SR leukemia
SW-620 colon = test system: SW-620 colon
T-47D breast = test system: T-47D breast
TK-10 renal = test system: TK-10 renal
U251 CNS = test system: U251 CNS
UACC-257 melanoma = test system: UACC-257 melanoma
UACC-62 melanoma = test system: UACC-62 melanoma
UO-31 renal = test system: UO-31 renal
A549 NSCLC = test system: A549 NSCLC
K-562 leukemia = test system: K-562 leukemia

## CC(=O)OC(C)C(OC(C)=O)C(OC(C)=O)C(/C=C/C1CC=CC(=O)O1)OC(C)=O (stereo unspecified)
786-0 renal
  GI50: 37.8 µM
  TGI: > 100 µM
A498 renal
  GI50: 16.9 µM
  TGI: 45.3 µM
ACHN renal
  GI50: 33.7 µM
  TGI: > 100 µM
BT-549 breast
  GI50: 25.5 µM
  TGI: 70.6 µM
CAKI-1 renal
  GI50: 43.3 µM
  TGI: > 100 µM
CCRF-CEM leukemia
  GI50: 30.3 µM
  TGI: > 100 µM
COLO 205 colon
  GI50: 22 µM
  TGI: 64.6 µM
DU-145 prostate
  GI50: 18.8 µM
  TGI: 43.1 µM
EKVX NSCLC
  GI50: 39.6 µM
  TGI: > 100 µM
HCC-2998 colon
  GI50: 22.9 µM
  TGI: 45.3 µM
HCT-116 colon
  GI50: 20.4 µM
  TGI: 48.4 µM
HCT-15 colon
  GI50: 32.2 µM
  TGI: > 100 µM
HL-60(TB) leukemia
  GI50: 20.4 µM
  TGI: 43.3 µM
HOP-62 NSCLC
  GI50: 37.8 µM
  TGI: > 100 µM
HOP-92 NSCLC
  GI50: 20.8 µM
  TGI: 64.6 µM
HS 578T breast
  GI50: 12.4 µM
  TGI: 33.1 µM
HT29 colon
  GI50: 15.8 µM
  TGI: 47.7 µM
IGROV1 ovarian
  GI50: 32 µM
  TGI: > 100 µM
KM12 colon
  GI50: 22.8 µM
  TGI: 61 µM
LOX IMVI melanoma
  GI50: 29.1 µM
  TGI: > 100000 nM
M14 melanoma
  GI50: 29.5 µM
  TGI: > 100000 nM
MALME-3M melanoma
  GI50: 36.5 µM
  TGI: > 100000 nM
MCF7 breast
  GI50: 33.6 µM
  TGI: > 100 µM
MDA-MB-231 breast
  GI50: 21.8 µM
  TGI: 53.6 µM
MDA-MB-435
  GI50: 37.6 µM
  TGI: > 100 µM
MOLT-4 leukemia
  GI50: 29.2 µM
  TGI: 97.5 µM
NCI-H226 lung
  GI50: 42.6 µM
  TGI: > 100000 nM
NCI-H23 lung
  GI50: 31.3 µM
  TGI: 98 µM
NCI-H460 lung
  GI50: 32.7 µM
  TGI: > 100000 nM
NCI-H522 lung
  GI50: 22.9 µM
  TGI: 60.3 µM
NCI/ADR-RES ovarian
  GI50: > 100000 nM
  TGI: > 100 µM
OVCAR-3 ovarian
  GI50: 30.8 µM
  TGI: 95.5 µM
OVCAR-4 ovarian
  GI50: 17.2 µM
  TGI: 56.1 µM
OVCAR-5 ovarian
  GI50: 82.8 µM
  TGI: > 100 µM
OVCAR-8 ovarian
  GI50: 26.8 µM
  TGI: 89.2 µM
PC-3 prostate
  GI50: 73.2 µM
  TGI: > 100 µM
RPMI-8226 leukemia
  GI50: 26.7 µM
  TGI: 83.5 µM
RXF 393 renal
  GI50: 21.3 µM
  TGI: 73.4 µM
SF-268 CNS
  GI50: 27.5 µM
  TGI: 75.7 µM
SF-295 CNS
  GI50: 51 µM
  TGI: > 100 µM
SF-539 CNS
  GI50: 21.5 µM
  TGI: 43.5 µM
SK-MEL-2 melanoma
  GI50: 35.9 µM
  TGI: > 100 µM
SK-MEL-28 melanoma
  GI50: 16.8 µM
  TGI: 46.6 µM
SK-MEL-5 melanoma
  GI50: 26.3 µM
  TGI: > 100000 nM
SK-OV-3 ovarian
  GI50: 78 µM
  TGI: > 100 µM
SN12C renal
  GI50: 10.5 µM
  TGI: 36.4 µM
SNB-19 CNS
  GI50: 33.5 µM
  TGI: > 100 µM
SNB-75 CNS
  GI50: 10.3 µM
  TGI: 28.6 µM
SR leukemia
  GI50: 19.4 µM
  TGI: 53.4 µM
SW-620 colon
  GI50: 16.1 µM
  TGI: 46.3 µM
T-47D breast
  GI50: 27.3 µM
  TGI: 80.1 µM
TK-10 renal
  GI50: 40.6 µM
  TGI: > 100 µM
U251 CNS
  GI50: 30.7 µM
  TGI: > 100 µM
UACC-257 melanoma
  GI50: 19.5 µM
  TGI: 42.1 µM
UACC-62 melanoma
  GI50: 25.4 µM
  TGI: 67.8 µM
UO-31 renal
  GI50: 42.8 µM
  TGI: > 100 µM

## C[C@H]1c2ccccc2CN1CCCOc1cc2c(cc1OCC1CC1)C1(CCCC1)C(N)=N2
786-0 renal
  GI50: 2.06 µM
  TGI: 8.2 µM
A498 renal
  GI50: 1.56 µM
  TGI: 5.69 µM
A549 NSCLC
  GI50: 1940 nM
  TGI: 7.61 µM
ACHN renal
  GI50: 1.8 µM
  TGI: 6.69 µM
BT-549 breast
  GI50: 4.8 µM
  TGI: 10.8 µM
CAKI-1 renal
  GI50: 1.79 µM
  TGI: 7.65 µM
CCRF-CEM leukemia
  GI50: 1.46 µM
  TGI: 6.82 µM
COLO 205 colon
  GI50: 0.842 µM
  TGI: 1.68 µM
DU-145 prostate
  GI50: 2.66 µM
  TGI: 8.63 µM
EKVX NSCLC
  GI50: 4.33 µM
  TGI: 10.8 µM
HCC-2998 colon
  GI50: 0.931 µM
  TGI: 1.78 µM
HCT-116 colon
  GI50: 0.95 µM
  TGI: 2.26 µM
HCT-15 colon
  GI50: 1.46 µM
  TGI: 5.1 µM
HL-60(TB) leukemia
  GI50: 1.21 µM
  TGI: 3.16 µM
HOP-62 NSCLC
  GI50: 3.67 µM
  TGI: 10.2 µM
HOP-92 NSCLC
  GI50: 0.633 µM
  TGI: 3.54 µM
HS 578T breast
  GI50: 1.74 µM
  TGI: 9.44 µM
HT29 colon
  GI50: 1.05 µM
  TGI: 2.67 µM
IGROV1 ovarian
  GI50: 2.27 µM
  TGI: 9.11 µM
K-562 leukemia
  GI50: 871 nM
  TGI: 2460 nM
KM12 colon
  GI50: 2.03 µM
  TGI: 7.69 µM
LOX IMVI melanoma
  GI50: 0.845 µM
  TGI: 1570 nM
M14 melanoma
  GI50: 0.932 µM
  TGI: 1810 nM
MALME-3M melanoma
  GI50: 0.888 µM
  TGI: 1680 nM
MCF7 breast
  GI50: 1.18 µM
  TGI: 3.46 µM
MDA-MB-231 breast
  GI50: 1.44 µM
  TGI: 5.21 µM
MDA-MB-435
  GI50: 1.67 µM
  TGI: 5.76 µM
MOLT-4 leukemia
  GI50: 1.4 µM
  TGI: 4.93 µM
NCI-H226 lung
  GI50: 1.02 µM
  TGI: 2900 nM
NCI-H23 lung
  GI50: 3.26 µM
  TGI: 10.3 µM
NCI-H460 lung
  GI50: 1.02 µM
  TGI: 2100 nM
NCI-H522 lung
  GI50: 1.66 µM
  TGI: 6.62 µM
NCI/ADR-RES ovarian
  GI50: 2840 nM
  TGI: 10.5 µM
OVCAR-3 ovarian
  GI50: 1.91 µM
  TGI: 6.86 µM
OVCAR-4 ovarian
  GI50: 1.83 µM
  TGI: 7.42 µM
OVCAR-5 ovarian
  GI50: 3.6 µM
  TGI: 10.1 µM
OVCAR-8 ovarian
  GI50: 2.38 µM
  TGI: 8.83 µM
PC-3 prostate
  GI50: 1.69 µM
  TGI: 7.6 µM
RPMI-8226 leukemia
  GI50: 1.01 µM
  TGI: 3.13 µM
RXF 393 renal
  GI50: 1.08 µM
  TGI: 3.82 µM
SF-268 CNS
  GI50: 2.94 µM
  TGI: 10.3 µM
SF-295 CNS
  GI50: 1.89 µM
  TGI: 6.71 µM
SF-539 CNS
  GI50: 0.922 µM
  TGI: 1.89 µM
SK-MEL-2 melanoma
  GI50: 1.87 µM
  TGI: 6.69 µM
SK-MEL-5 melanoma
  GI50: 0.912 µM
  TGI: 1690 nM
SK-OV-3 ovarian
  GI50: 4.84 µM
  TGI: 10.7 µM
SN12C renal
  GI50: 2.59 µM
  TGI: 9.18 µM
SNB-19 CNS
  GI50: 5.65 µM
  TGI: 11.8 µM
SNB-75 CNS
  GI50: 0.994 µM
  TGI: 4.86 µM
SR leukemia
  GI50: 1.15 µM
  TGI: 2.87 µM
SW-620 colon
  GI50: 0.977 µM
  TGI: 2.31 µM
T-47D breast
  GI50: 0.99 µM
  TGI: 2.5 µM
TK-10 renal
  GI50: 2.07 µM
  TGI: 8.26 µM
U251 CNS
  GI50: 1.31 µM
  TGI: 4.08 µM
UACC-257 melanoma
  GI50: 0.999 µM
  TGI: 2.13 µM
UACC-62 melanoma
  GI50: 0.925 µM
  TGI: 1.93 µM
UO-31 renal
  GI50: 1.02 µM
  TGI: 3.04 µM

Reference: PubChem BioAssay (NCI)
